Measurements from the NIST ThermoML archive (doi:10.1021/je400055v).

Experiment: xn = mol fraction of the nth substance listed
Conditions: Liquid, Vibrating tube method

CCCCCCCCCCC [undecane] + CCCCCCC
Conditions | mass density [kg/m3]
323.12 K, 7000 kPa, x2 = 0.7482 | 685.4
323.12 K, 8000 kPa, x2 = 0.7482 | 686.4
323.12 K, 8001 kPa, x2 = 0.05 | 722.8
323.12 K, 9000 kPa, x2 = 0.05 | 723.6
323.12 K, 9000 kPa, x2 = 0.7482 | 687.3
323.12 K, 10000 kPa, x2 = 0.05 | 724.5
323.12 K, 10000 kPa, x2 = 0.7482 | 688.3
323.12 K, 11000 kPa, x2 = 0.05 | 725.3
323.12 K, 11000 kPa, x2 = 0.7482 | 689.2
323.12 K, 12000 kPa, x2 = 0.05 | 726.1
323.12 K, 12000 kPa, x2 = 0.7482 | 690.1
323.12 K, 13000 kPa, x2 = 0.05 | 726.8
323.12 K, 13000 kPa, x2 = 0.7482 | 691.1
323.12 K, 14000 kPa, x2 = 0.05 | 727.6
323.12 K, 14000 kPa, x2 = 0.7482 | 691.9
323.12 K, 15000 kPa, x2 = 0.05 | 728.4
323.12 K, 15000 kPa, x2 = 0.7482 | 692.8
323.12 K, 16000 kPa, x2 = 0.05 | 729.1
323.12 K, 16000 kPa, x2 = 0.7482 | 693.7
323.12 K, 17000 kPa, x2 = 0.05 | 729.9
323.12 K, 17000 kPa, x2 = 0.7482 | 694.5
323.12 K, 18000 kPa, x2 = 0.05 | 730.6
323.12 K, 18000 kPa, x2 = 0.7482 | 695.4
323.12 K, 19000 kPa, x2 = 0.05 | 731.3
323.12 K, 19000 kPa, x2 = 0.7482 | 696.2
323.12 K, 20000 kPa, x2 = 0.05 | 732
323.12 K, 20000 kPa, x2 = 0.7482 | 697
323.12 K, 21000 kPa, x2 = 0.05 | 732.7
323.12 K, 21000 kPa, x2 = 0.7482 | 697.8
323.12 K, 22000 kPa, x2 = 0.7482 | 698.6
323.12 K, 22001 kPa, x2 = 0.05 | 733.4
323.12 K, 23000 kPa, x2 = 0.05 | 734.1
323.12 K, 23000 kPa, x2 = 0.7482 | 699.4
323.12 K, 24000 kPa, x2 = 0.05 | 734.8
323.12 K, 24000 kPa, x2 = 0.7482 | 700.1
323.12 K, 25000 kPa, x2 = 0.05 | 735.4
323.12 K, 25000 kPa, x2 = 0.7482 | 700.9
323.15 K, 1000 kPa, x2 = 0.2346 | 708.9
323.15 K, 2000 kPa, x2 = 0.2346 | 709.9
323.15 K, 3000 kPa, x2 = 0.2346 | 710.8
323.15 K, 4001 kPa, x2 = 0.2346 | 711.7
323.15 K, 5001 kPa, x2 = 0.2346 | 712.6
323.15 K, 6001 kPa, x2 = 0.2346 | 713.5
323.15 K, 7001 kPa, x2 = 0.2346 | 714.4
323.15 K, 8000 kPa, x2 = 0.2346 | 715.2
323.15 K, 9000 kPa, x2 = 0.2346 | 716.1
323.15 K, 10000 kPa, x2 = 0.2346 | 716.9
323.15 K, 11000 kPa, x2 = 0.2346 | 717.7
323.15 K, 12000 kPa, x2 = 0.2346 | 718.5
323.15 K, 13000 kPa, x2 = 0.2346 | 719.4
323.15 K, 14000 kPa, x2 = 0.2346 | 720.1
323.15 K, 15000 kPa, x2 = 0.2346 | 720.9
323.15 K, 16001 kPa, x2 = 0.2346 | 721.7
323.15 K, 17000 kPa, x2 = 0.2346 | 722.5
323.15 K, 18000 kPa, x2 = 0.2346 | 723.2
323.15 K, 19000 kPa, x2 = 0.2346 | 724
323.15 K, 20000 kPa, x2 = 0.2346 | 724.7
323.15 K, 21033 kPa, x2 = 0.2346 | 725.4
323.15 K, 22034 kPa, x2 = 0.2346 | 726.1
323.15 K, 23036 kPa, x2 = 0.2346 | 726.9
323.15 K, 24037 kPa, x2 = 0.2346 | 727.5
323.15 K, 25039 kPa, x2 = 0.2346 | 728.2
333.01 K, 1001 kPa, x2 = 0.9511 | 654.4
333.01 K, 2000 kPa, x2 = 0.9511 | 655.7
333.01 K, 3000 kPa, x2 = 0.9511 | 656.9
333.01 K, 4000 kPa, x2 = 0.9511 | 658.2
333.01 K, 5000 kPa, x2 = 0.9511 | 659.4
333.01 K, 6000 kPa, x2 = 0.9511 | 660.5
333.01 K, 7000 kPa, x2 = 0.9511 | 661.7
333.01 K, 8000 kPa, x2 = 0.9511 | 662.8
333.01 K, 9000 kPa, x2 = 0.9511 | 663.9
333.01 K, 10000 kPa, x2 = 0.9511 | 665
333.01 K, 11000 kPa, x2 = 0.9511 | 666.1
333.01 K, 12000 kPa, x2 = 0.9511 | 667.1
333.01 K, 13000 kPa, x2 = 0.9511 | 668.2
333.01 K, 14001 kPa, x2 = 0.9511 | 669.2
333.01 K, 15001 kPa, x2 = 0.9511 | 670.2
333.01 K, 16000 kPa, x2 = 0.9511 | 671.2
333.01 K, 17001 kPa, x2 = 0.9511 | 672.1
333.01 K, 18001 kPa, x2 = 0.9511 | 673.1
333.01 K, 19000 kPa, x2 = 0.9511 | 674
333.01 K, 20000 kPa, x2 = 0.9511 | 674.9
333.01 K, 21001 kPa, x2 = 0.9511 | 675.8
333.01 K, 22000 kPa, x2 = 0.9511 | 676.7
333.01 K, 23001 kPa, x2 = 0.9511 | 677.6
333.01 K, 24000 kPa, x2 = 0.9511 | 678.5
333.01 K, 25000 kPa, x2 = 0.9511 | 679.3
333.04 K, 2001 kPa, x2 = 0.5063 | 688
333.04 K, 3000 kPa, x2 = 0.5063 | 689
333.04 K, 4000 kPa, x2 = 0.5063 | 690.1
333.04 K, 5000 kPa, x2 = 0.5063 | 691.1
333.04 K, 6000 kPa, x2 = 0.5063 | 692.1
333.04 K, 7000 kPa, x2 = 0.5063 | 693.1
